Laboratory results from patent US11524966B1 (Valo Early Discovery, Inc., priority 2017, dated 2022).

These compounds were tested against T1, USP28 (His-tagged USP28-FL-mammalian) (Homo sapiens, UniProt Q96RU2) (assay: Ubiquitin-Rhodamine 110 Assay for USP28 Activity, Example A-1(a)). Settings: Ub-Rh110 assay, Example A-1(a); read-out: USP28 A-1(a) IC50 range.
T1 construct: Expression of USP28 (1-1077)-TEV-6*His (pTT5 vector); made in house; host or cells: Expi293f cells (pTT5 vector)
T1 sequence (Q96RU2 1-1077): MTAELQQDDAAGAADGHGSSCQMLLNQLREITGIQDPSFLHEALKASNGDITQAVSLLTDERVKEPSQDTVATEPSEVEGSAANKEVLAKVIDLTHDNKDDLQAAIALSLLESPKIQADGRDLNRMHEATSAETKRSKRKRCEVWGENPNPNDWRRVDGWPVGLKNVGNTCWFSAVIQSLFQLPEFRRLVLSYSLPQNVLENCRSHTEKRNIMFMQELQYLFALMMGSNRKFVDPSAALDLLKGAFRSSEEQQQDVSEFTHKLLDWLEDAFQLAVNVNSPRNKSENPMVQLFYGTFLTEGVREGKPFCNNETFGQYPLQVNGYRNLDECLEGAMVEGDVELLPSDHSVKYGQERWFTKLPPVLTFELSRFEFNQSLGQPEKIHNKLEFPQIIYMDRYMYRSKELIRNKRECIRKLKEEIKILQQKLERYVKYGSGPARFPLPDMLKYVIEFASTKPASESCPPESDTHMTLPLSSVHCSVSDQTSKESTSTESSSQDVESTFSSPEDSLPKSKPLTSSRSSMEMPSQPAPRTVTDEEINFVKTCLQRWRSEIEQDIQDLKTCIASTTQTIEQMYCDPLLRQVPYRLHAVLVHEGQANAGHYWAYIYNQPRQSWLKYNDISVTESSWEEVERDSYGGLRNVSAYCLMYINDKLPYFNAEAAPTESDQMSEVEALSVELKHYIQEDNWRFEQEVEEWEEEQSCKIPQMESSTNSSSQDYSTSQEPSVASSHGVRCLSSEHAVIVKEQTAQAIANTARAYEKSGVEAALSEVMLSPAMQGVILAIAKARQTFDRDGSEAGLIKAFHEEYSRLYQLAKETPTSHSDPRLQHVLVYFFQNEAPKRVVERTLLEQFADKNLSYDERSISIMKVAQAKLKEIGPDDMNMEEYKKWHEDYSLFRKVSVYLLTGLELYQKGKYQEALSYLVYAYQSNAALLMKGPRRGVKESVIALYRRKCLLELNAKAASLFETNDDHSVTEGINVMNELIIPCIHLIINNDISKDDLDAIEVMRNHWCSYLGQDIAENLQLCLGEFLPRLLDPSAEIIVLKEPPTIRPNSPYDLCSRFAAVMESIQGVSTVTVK
Type: biochemical
Outline: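 IC50 from 4-parameter logistic fit of percent inhibition versus no-enzyme and DMSO controls; compounds 25 μM to 1.3 nM, 3-fold. Ub-Rh110 cleavage (25 nM, below Km) by […] mammalian-expressed USP28-FL-His ran 45 min at room temperature, stopped with 10 mM citric acid, read ex 485/em 535.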
Compound `Cc1ccc2c(N)c(C(=O)N[C@H]3COc4cc(N5CCNCC5)ccc4C3)sc2n1` (single isomer, unassigned) [Example 1-1] has an IC50 of 1 to 50 nM. Work on `Cc1ccc2c(N)c(C(=O)N[C@@H]3COc4cc(N5CCNCC5)ccc4C3)sc2n1` (single isomer, unassigned) [Example 1-2] yielded an IC50 of 200 to 2000 nM. Work on `Cc1ccc2c(N)c(C(=O)N[C@H]3COc4cc(N5CC6CCC(C5)N6)ccc4C3)sc2n1` (single isomer, unassigned) [Example 1-3] yielded an IC50 of 1 to 50 nM. In the case of `Cc1ccc2c(N)c(C(=O)N[C@@H]3COc4cc(N5CC6CCC(C5)N6)ccc4C3)sc2n1` (single isomer, unassigned) [Example 1-4], the IC50 is reported as 200 to 2000 nM. `Cc1ccc2c(N)c(C(=O)N[C@H]3COc4cc(N5CC6CCCC(C5)N6)ccc4C3)sc2n1` (single isomer, unassigned) [Example 1-5] showed an IC50 of 1 to 50 nM. `Cc1ccc2c(N)c(C(=O)N[C@@H]3COc4cc(N5CC6CCCC(C5)N6)ccc4C3)sc2n1` (single isomer, unassigned) [Example 1-6] was tested, and the IC50 was 50 to 200 nM. Compound `Cc1ccc2c(N)c(C(=O)N[C@H]3COc4cc(N5CCN[C@H](C)[C@@H]5C)ccc4C3)sc2n1` (single isomer, unassigned) [Example 1-9] has an IC50 of 1 to 50 nM. `Cc1ccc2c(N)c(C(=O)N[C@@H]3COc4cc(N5CCN[C@H](C)[C@@H]5C)ccc4C3)sc2n1` (single isomer, unassigned) [Example 1-10] was tested, and the IC50 was 1 to 50 nM. `Cc1ccc2c(N)c(C(=O)N[C@H]3COc4cc(N5CCN[C@H](C)[C@H]5C)ccc4C3)sc2n1` (single isomer, unassigned) [Example 1-11] was tested, and the IC50 was 1 to 50 nM. Compound `Cc1ccc2c(N)c(C(=O)N[C@@H]3COc4cc(N5CCN[C@H](C)[C@H]5C)ccc4C3)sc2n1` (single isomer, unassigned) [Example 1-12] has an IC50 of 1 to 50 nM. `Cc1ccc2c(N)c(C(=O)N[C@H]3COc4cc(N5CCN[C@@H](C)[C@@H]5C)ccc4C3)sc2n1` (single isomer, unassigned) [Example 1-13] showed an IC50 of 50 to 200 nM. In the case of `Cc1ccc2c(N)c(C(=O)N[C@@H]3COc4cc(N5CCN[C@@H](C)[C@@H]5C)ccc4C3)sc2n1` (single isomer, unassigned) [Example 1-14], the IC50 is reported as 50 to 200 nM. `Cc1nc2sc(C(=O)N[C@H]3COc4cc(N5CCNCC5)ccc4C3)c(N)c2cc1F` (single isomer, unassigned) [Example 1-15] was tested, and the IC50 was 1 to 50 nM. `Cc1nc2sc(C(=O)N[C@@H]3COc4cc(N5CCNCC5)ccc4C3)c(N)c2cc1F` (single isomer, unassigned) [Example 1-16] showed an IC50 of 200 to 2000 nM. For `Nc1c(C(=O)N[C@H]2COc3cc(N4CC5CCC(C4)N5)ccc3C2)sc2ncc(F)cc12` (single isomer, unassigned) [Example 1-17], the IC50 was 50 to 200 nM. `Nc1c(C(=O)N[C@@H]2COc3cc(N4CC5CCC(C4)N5)ccc3C2)sc2ncc(F)cc12` (single isomer, unassigned) [Example 1-18] gave an IC50 of over 2000 nM. With `Cc1cnc2c(N)c(C(=O)N[C@H]3COc4cc(N5CCNCC5)ccc4C3)sc2n1` (single isomer, unassigned) [Example 1-21] the IC50 was 1 to 50 nM. With `Cc1cnc2c(N)c(C(=O)N[C@@H]3COc4cc(N5CCNCC5)ccc4C3)sc2n1` (single isomer, unassigned) [Example 1-22] the IC50 was 200 to 2000 nM. `CCn1ccc2cc(C(=O)N[C@@H]3COc4cc(N5CC6CCC(C5)N6)ccc4C3)cnc21` (single isomer, unassigned) [Example 1-27] showed an IC50 of 200 to 2000 nM. Work on `CCn1ccc2cc(C(=O)N[C@H]3COc4cc(N5CC6CCC(C5)N6)ccc4C3)cnc21` (single isomer, unassigned) [Example 1-28] yielded an IC50 of 1 to 50 nM. With `Cc1ccc2c(N)c(C(=O)N[C@@H]3COc4cc(N5CC6CCC(C5)N6)cc(F)c4C3)sc2n1` (single isomer, unassigned) [Example 1-30] the IC50 was 200 to 2000 nM. For `Cc1ccc2c(N)c(C(=O)N[C@H]3COc4cc(N5CCNCC5)c(OC(F)(F)F)cc4C3)sc2n1` (single isomer, unassigned) [Example 1-31], the IC50 was 200 to 2000 nM. In the case of `Cc1ccc2c(N)c(C(=O)N[C@@H]3COc4cc(N5CCNCC5)c(OC(F)(F)F)cc4C3)sc2n1` (single isomer, unassigned) [Example 1-32], the IC50 is reported as 50 to 200 nM. With `Cc1nc2sc(C(=O)N[C@H]3COc4cc(N5CCNCC5)cc(F)c4C3)c(N)c2s1` (single isomer, unassigned) [Example 1-37] the IC50 was over 2000 nM. In the case of `Cc1nc2sc(C(=O)N[C@@H]3COc4cc(N5CCNCC5)cc(F)c4C3)c(N)c2s1` (single isomer, unassigned) [Example 1-38], the IC50 is reported as 1 to 50 nM. Work on `Cc1nc2sc(C(=O)N[C@H]3COc4cc(N5CC6CCC(C5)N6)cc(F)c4C3)c(N)c2s1` (single isomer, unassigned) [Example 1-39] yielded an IC50 of 1 to 50 nM. With `Cc1nc2sc(C(=O)N[C@@H]3COc4cc(N5CC6CCC(C5)N6)cc(F)c4C3)c(N)c2s1` (single isomer, unassigned) [Example 1-40] the IC50 was 200 to 2000 nM. In the case of `Cc1ccc2c(N)c(C(=O)N[C@@H]3COc4cc(N5CC6CC(C5)N6)cc(F)c4C3)sc2n1` (single isomer, unassigned) [Example 1-41], the IC50 is reported as 1 to 50 nM. `Cc1ccc2c(N)c(C(=O)N[C@H]3COc4cc(N5CC6CC(C5)N6)cc(F)c4C3)sc2n1` (single isomer, unassigned) [Example 1-42] was tested, and the IC50 was 200 to 2000 nM. With `Cc1cnc2c(N)c(C(=O)N[C@H]3CCc4cc(N5CCNCC5)c(C)cc4C3)sc2n1` (single isomer, unassigned) [Example 2-34] the IC50 was 50 to 200 nM. In the case of `Cc1cnc2c(N)c(C(=O)N[C@@H]3CCc4cc(N5CCNCC5)c(C)cc4C3)sc2n1` (single isomer, unassigned) [Example 2-35], the IC50 is reported as over 2000 nM. Compound `Cc1cnc2c(N)c(C(=O)N[C@H]3CCc4c(ccc(N5CCNCC5)c4C)C3)sc2n1` (single isomer, unassigned) [Example 2-36] has an IC50 of 200 to 2000 nM. With `Cc1cnc2c(N)c(C(=O)N[C@@H]3CCc4c(ccc(N5CCNCC5)c4C)C3)sc2n1` (single isomer, unassigned) [Example 2-37] the IC50 was 1 to 50 nM. With `CO[C@H]1CN(c2ccc3c(c2)OC[C@H](NC(=O)c2sc4nc(C)ccc4c2N)C3)C[C@@H]1N` (single isomer, unassigned) [Example 3-1] the IC50 was 1 to 50 nM. `CO[C@@H]1CN(c2ccc3c(c2)OC[C@H](NC(=O)c2sc4nc(C)ccc4c2N)C3)C[C@H]1N` (single isomer, unassigned) [Example 3-2] gave an IC50 of 1 to 50 nM. Work on `Cc1ccc2c(N)c(C(=O)N[C@H]3COc4cc(N5CCC[C@@](N)(C(F)(F)F)C5)ccc4C3)sc2n1` (single isomer, unassigned) [Example 3-3] yielded an IC50 of 1 to 50 nM. Compound `Cc1ccc2c(N)c(C(=O)N[C@H]3COc4cc(N5CCC[C@](N)(C(F)(F)F)C5)ccc4C3)sc2n1` (single isomer, unassigned) [Example 3-4] has an IC50 of 1 to 50 nM. Work on `Cc1nc2sc(C(=O)N[C@H]3COc4cc(N5CC6CCC(C5)N6)ccc4C3)c(N)c2s1` [Example 1-23, N-((3R)-7-(3,8-diazabicyclo[3.2.1]octan-3-yl)chroman-3-yl)-6-amino-2-methylthieno[2,3-d]thiazole-5-carboxamide] yielded an IC50 of 1 to 50 nM. With `Cc1nc2sc(C(=O)N[C@@H]3COc4cc(N5CC6CCC(C5)N6)ccc4C3)c(N)c2s1` [Example 1-24, N-((3S)-7-(3,8-diazabicyclo[3.2.1]octan-3-yl)chroman-3-yl)-6-amino-2-methylthieno[2,3-d]thiazole-5-carboxamide] the IC50 was 200 to 2000 nM. Work on `Cc1nc2sc(C(=O)N[C@H]3COc4cc(N5CCNCC5)ccc4C3)c(N)c2s1` [Example 1-25, (R)-6-amino-2-methyl-N-(7-(piperazin-1-yl)chroman-3-yl)thieno[2,3-d]thiazole-5-carboxamide] yielded an IC50 of 1 to 50 nM. Compound `Cc1nc2sc(C(=O)N[C@@H]3COc4cc(N5CCNCC5)ccc4C3)c(N)c2s1` [Example 1-26, (S)-6-amino-2-methyl-N-(7-(piperazin-1-yl)chroman-3-yl)thieno[2,3-d]thiazole-5-carboxamide] has an IC50 of 200 to 2000 nM. `Cc1ccc2c(N)c(C(=O)N[C@H]3COc4c(ccc(N5CCNCC5)c4F)C3)sc2n1` [Example 1-33, (R)-3-amino-N-(8-fluoro-7-(piperazin-1-yl)chroman-3-yl)-6-methylthieno[2,3-b]pyridine-2-carboxamide] showed an IC50 of 1 to 50 nM.
